Experimental data: the NIST ThermoML archive (doi:10.1021/je400679k)

Assay: xn = mol fraction of the nth substance listed
Details: 101 kPa, Liquid, Vibrating tube method

CNCCCN [N-methyl-1,3-diaminopropane] + O
mass density [kg/m3]
Details	283.15 K	293.15 K	303.15 K	313.15 K	323.15 K	333.15 K	343.15 K	353.15 K	363.15 K
x1 = 0.0051	998.237	996.63	993.985	990.476	986.217	981.304	975.769	969.7	963.045
x1 = 0.02	994.774	992.593	989.479	985.566	980.949	975.762	969.886	963.52	956.663
x1 = 0.04	992.84	989.571	985.557	980.873	975.589	969.758	963.394	956.509	949.281
x1 = 0.0599	991.664	987.189	982.161	976.614	970.587	964.115	957.198	949.885	942.172
x1 = 0.08	991.853	986.2	980.175	973.774	967.022	959.923	952.467	944.681	936.552
x1 = 0.1001	990.982	984.3	977.4	970.258	962.871	955.236	947.339	939.185	930.768
x1 = 0.1496	985.446	977.467	969.396	961.197	952.86	944.358	935.674	926.784	917.665
x1 = 0.2001	975.602	967.23	958.776	950.269	941.571	932.714	923.678	914.46	905.046
x1 = 0.2996	953.237	944.826	936.29	927.601	918.738	909.696	900.476	891.074	881.47
x1 = 0.4001	932.582	924.145	915.578	906.849	897.972	888.926	879.715	870.324	860.741
x1 = 0.4995	915.228	906.757	898.165	889.428	880.556	871.523	862.344	852.997	843.475
x1 = 0.5998	900.588	892.069	883.427	874.666	865.773	856.742	847.577	838.26	828.782
x1 = 0.6995	888.711	880.119	871.429	862.629	853.712	844.674	835.508	826.212	816.767
x1 = 0.7976	879.041	870.383	861.635	852.787	843.839	834.781	825.611	816.324	806.909
x1 = 0.901	869.652	860.902	852.078	843.17	834.181	825.1	815.925	806.659	797.262
x1 = 1	860.459	851.605	842.69	833.715	824.673	815.559	806.37	797.093	787.723
